According to publication PMC10279719 (Nature Communications, 2023):

Legend:
14-3-3η = molecular target: T1, 14-3-3η (Homo sapiens, UniProt Q04917); assay: SPR, PEAK tandem peptides binding to immobilised 14-3-3η; details: peptide analyte over amine-coupled 14-3-3η (CM5); Biacore S200, HBS-TP pH 7.4, 20 °C; steady-state 1:1 fit; mean ± S.E.M.; read-out: SPR KD, 14-3-3η (eta)
T1 construct: 14-3-3η (UniProt Q04917-1; residues 1–246); 8-His tag with TEV protease cleavage site (N); made in house; host or cells: E. coli C41 (DE3)
T1 sequence (Q04917 1-246): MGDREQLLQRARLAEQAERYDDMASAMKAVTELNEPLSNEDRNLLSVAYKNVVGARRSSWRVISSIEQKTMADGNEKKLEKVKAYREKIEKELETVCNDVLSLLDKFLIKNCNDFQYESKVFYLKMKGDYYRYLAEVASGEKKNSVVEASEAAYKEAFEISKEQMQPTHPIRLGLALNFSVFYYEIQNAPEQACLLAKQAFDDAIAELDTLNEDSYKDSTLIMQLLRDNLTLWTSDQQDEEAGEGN
Method: (§1) Purified […]3 was diluted to 5 μg ml^-1 in 10 mM sodium acetate pH 4.0 and amine coupled at 25 °C to a Series S CM5 sensor chip, in HBS-N running buffer (20 mM HEPES pH 7.4, 150 mM NaCl) to a final immobilization level of 1100-1400 response units (RU), followed by surface deactivation using 1 M ethanolamine. A blank activation/deactivation was used for the reference surface. […] Samples were injected in a multi-cycle run (flow rate 30 μl min^-1, contact time of 60 s, dissociation 120 s) without regeneration. Sensorgrams were double referenced, and steady-state binding data fitted using a 1:1 binding model using Biacore S200 Evaluation Software (Cytiva, v. 1.1). […] Representative sensorgrams and fitted dissociation constant (KD) values, depicted as mean ± S.E.M.

14-3-3ε = molecular target: T2, 14-3-3ε (Homo sapiens, UniProt P62258); assay: SPR, PEAK tandem peptides binding to immobilised 14-3-3ε; details: peptide analyte over amine-coupled 14-3-3ε (CM5); Biacore S200, HBS-TP pH 7.4, 20 °C; steady-state 1:1 fit; mean ± S.E.M.; read-out: SPR KD, 14-3-3ε (epsilon)
T2 construct: 14-3-3ε (UniProt P62258-1; residues 1–255); 8-His tag with TEV protease cleavage site (N); made in house; host or cells: E. coli C41 (DE3)
T2 sequence (P62258 1-255): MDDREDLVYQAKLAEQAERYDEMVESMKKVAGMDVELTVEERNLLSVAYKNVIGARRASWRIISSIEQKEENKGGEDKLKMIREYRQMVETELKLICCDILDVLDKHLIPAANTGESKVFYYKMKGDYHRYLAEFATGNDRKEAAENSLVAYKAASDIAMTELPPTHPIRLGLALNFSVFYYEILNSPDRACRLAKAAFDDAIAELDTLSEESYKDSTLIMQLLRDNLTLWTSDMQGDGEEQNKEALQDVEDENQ
Method: Purified […]3 was diluted to 5 μg ml^-1 in 10 mM sodium acetate pH 4.0 and amine coupled at 25 °C to a Series S CM5 sensor chip, in HBS-N running buffer (20 mM HEPES pH 7.4, 150 mM NaCl) to a final immobilization level of 1100-1400 response units (RU), followed by surface deactivation using 1 M ethanolamine. A blank activation/deactivation was used for the reference surface. […] PEAK PRM peptides: […] Samples were injected in a multi-cycle run (flow rate 30 μl min^-1, contact time of 60 s, dissociation 120 s) without regeneration. Sensorgrams were double referenced, and steady-state binding data fitted using a 1:1 binding model using Biacore S200 Evaluation Software (Cytiva, v. 1.1). […] Representative sensorgrams and fitted dissociation constant (KD) values, depicted as mean ± S.E.M.

14-3-3γ = molecular target: T3, 14-3-3γ (Homo sapiens, UniProt P61981); assay: SPR, PEAK peptides binding to immobilised 14-3-3γ; details: peptide analyte over amine-coupled 14-3-3γ (CM5); Biacore S200, HBS-TP pH 7.4, 20 °C; steady-state 1:1 fit; mean ± S.E.M.; read-out: SPR KD, 14-3-3γ (gamma)
T3 construct: 14-3-3γ (UniProt P61981-1; residues 1–247); 8-His tag with TEV protease cleavage site (N); made in house; host or cells: E. coli C41 (DE3)
T3 sequence (P61981 1-247): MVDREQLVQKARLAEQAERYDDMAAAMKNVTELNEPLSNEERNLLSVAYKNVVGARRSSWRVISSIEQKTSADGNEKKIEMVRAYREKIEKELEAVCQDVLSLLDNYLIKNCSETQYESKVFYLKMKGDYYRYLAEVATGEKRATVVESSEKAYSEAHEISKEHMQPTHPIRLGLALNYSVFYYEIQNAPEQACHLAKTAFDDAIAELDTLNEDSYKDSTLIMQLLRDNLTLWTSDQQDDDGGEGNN
Method: as §1

14-3-3σ (Homo sapiens) = molecular target: T4, 14-3-3σ (Homo sapiens); assay: SPR, PEAK tandem peptides binding to immobilised 14-3-3σ; details: peptide analyte over amine-coupled 14-3-3σ (CM5); Biacore S200, HBS-TP pH 7.4, 20 °C; steady-state 1:1 fit; mean ± S.E.M.; read-out: SPR KD, 14-3-3σ (sigma)
T4 construct: 14-3-3ς (UniProt P63104-1; residues 1–245); 8-His tag with TEV protease cleavage site (N); made in house; host or cells: E. coli C41 (DE3)
T4 sequence (P63104 whole entry, the tested form may be a part): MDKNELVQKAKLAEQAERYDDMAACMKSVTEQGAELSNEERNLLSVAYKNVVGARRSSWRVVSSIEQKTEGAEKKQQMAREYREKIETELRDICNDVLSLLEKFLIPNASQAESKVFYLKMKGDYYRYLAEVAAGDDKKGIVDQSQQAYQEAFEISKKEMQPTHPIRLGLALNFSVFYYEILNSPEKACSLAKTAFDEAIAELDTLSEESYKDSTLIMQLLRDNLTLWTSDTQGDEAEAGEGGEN
Method: as §1

CrkII^SH2 = molecular target: T5, CrkII^SH2 (Homo sapiens, UniProt P46108); assay: SPR, CrkII SH2 binding to immobilised PEAK proteins; details: interactor as analyte over biotinylated PEAK protein (biotin CAPture); Biacore 8K+, HBS-TP with 500 mM NaCl, 20 °C; steady-state fit; mean ± S.E.M. (N = 3)
T5 construct: CrkII^SH2; UniProt P46108-1, residues 6–120; 8-His tag with TEV protease cleavage site (N); made in house; host or cells: E. coli C41 (DE3)
T5 sequence (P46108 6-120): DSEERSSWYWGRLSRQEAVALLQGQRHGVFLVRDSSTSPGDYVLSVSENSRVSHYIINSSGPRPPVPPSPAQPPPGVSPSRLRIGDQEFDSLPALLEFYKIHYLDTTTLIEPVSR
Method: (§2) SPR binding studies of PEAK PRM peptides to CrkII^NSH3 were performed using a Biacore S200 Instrument (Cytiva). Purified CrkII^NSH3 was diluted to 5 µg ml^−1 in 10 mM sodium acetate pH 4.0 and amine coupled at 25 °C to a Series S CM5 sensor chip, in HBS-N running buffer (20 mM HEPES pH 7.4, 150 mM NaCl) to a final immobilization level of 1100–1400 response units (RU), followed by surface deactivation using 1 M ethanolamine. A blank activation/deactivation was used for the reference surface. Peptide binding studies were performed at 20 °C in HBS-TP running buffer (20 mM HEPES pH 7.4, 150 mM NaCl, 1 mM TCEP, 0.005% (v/v) Tween-P20). […] Peptide stocks were further diluted to in running buffer to 10 or 20 µM and prepared as a 11-point concentration series (2-fold serial dilution, […] for PEAK PRM peptides, or 20 µM–20 nM for PEAK tandem motif peptides). Samples were injected in a multi-cycle run (flow rate 30 µl min^−1, contact time of 60 s, dissociation 120 s) without regeneration. Sensorgrams were double referenced, and steady-state binding data fitted using a 1:1 binding model using Biacore S200 Evaluation Software (Cytiva, v. 1.1).
(§3) SPR binding studies of PEAK proteins to full length CrkII/Grb2 and sub-domains were performed using a Biacore 8K+ Instrument (Cytiva) and analyzed using Biacore Insight Evaluation Software (v. 3.0.12.15655). […] Binding studies and steady-state data analysis were performed as described for CrkII^NSH3 with the inclusion of an additional surface regeneration step (60 s injection of 1 M NaCl) between cycles.

CrkII^NSH3 = molecular target: T6, CrkII^NSH3 (Homo sapiens, UniProt P46108); assay: SPR, CrkII NSH3 binding to immobilised PEAK proteins; details: read-out: CrkII NSH3 SPR KD; interactor as analyte over biotinylated PEAK protein captured with biotin CAPture kit; Biacore 8K+, HBS-TP, 20 °C; steady-state fit; mean ± SD (N = 2); read-out: CrkII-SH2 SPR KD
T6 construct: CrkII^NSH3; UniProt P46108-1, residues 134–191; 8-His tag with TEV protease cleavage site (N); made in house; host or cells: E. coli C41 (DE3)
T6 sequence (P46108 134-191): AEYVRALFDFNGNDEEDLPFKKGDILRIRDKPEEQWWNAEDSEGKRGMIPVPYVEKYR
Method: as §2, §3

CrkII^FL monomer = molecular target: T7, CrkII^FL monomer (Homo sapiens, UniProt P46108); assay: SPR, CrkII FL monomer binding to immobilised PEAK proteins; details: interactor as analyte over biotinylated PEAK protein (biotin CAPture); Biacore 8K+, HBS-TP with 500 mM NaCl, 20 °C; steady-state fit; mean ± SD (N = 2)
T7 construct: full length CrkII (CrkII^FL; UniProt P46108-1, residues 1–330); 8-His tag with TEV protease cleavage site (N); made in house; host or cells: E. coli C41 (DE3)
T7 sequence (P46108 whole entry, the tested form may be a part): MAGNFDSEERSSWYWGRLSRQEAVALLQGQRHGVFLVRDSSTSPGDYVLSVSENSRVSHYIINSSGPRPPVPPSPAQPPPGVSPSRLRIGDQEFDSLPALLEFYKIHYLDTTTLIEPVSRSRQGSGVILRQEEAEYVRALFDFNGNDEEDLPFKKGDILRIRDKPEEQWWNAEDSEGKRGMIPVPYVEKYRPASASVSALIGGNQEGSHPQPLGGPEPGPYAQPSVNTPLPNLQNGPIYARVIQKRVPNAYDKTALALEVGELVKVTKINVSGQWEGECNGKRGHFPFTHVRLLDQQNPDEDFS
Method: as §2
(§4) SPR binding studies of PEAK proteins to full length CrkII/Grb2 and sub-domains were performed using a Biacore 8K+ Instrument (Cytiva) and analyzed using Biacore Insight Evaluation Software (v. 3.0.12.15655). […]

14-3-3ɣ = assay: SPR, 14-3-3ɣ binding to immobilised PEAK proteins; parameters: species or system human; details: 14-3-3ɣ analyte 0.46–1000 nM, multi-cycle, over immobilised biotinylated PEAK protein; Biacore 8K+, 20 °C; KD only an estimate (bivalent analyte model); N = 3
Method: PEAK proteins and adapters proteins (full length or individual domains) were biotinylated using EZ-Link™ NHS-PEG4-Biotin (Thermo Fisher) at a 1:1 molar ratio (100 µM) for 1 h at room temperature, then excess biotin was removed by buffer exchange using a Zeba™ Spin Desalting Column (Thermo Fisher) into HBS-T buffer (20 mM HEPES pH 7.4, 150 mM NaCl, 1 mM TCEP).
SPR binding studies of PEAK proteins to full length CrkII/Grb2 and sub-domains were performed using a Biacore 8K+ Instrument (Cytiva) and analyzed using Biacore Insight Evaluation Software (v. 3.0.12.15655). […] Biotinylated PEAK proteins (with or without Src phosphorylation; 500 nM in HBS-TP) were immobilized using a biotin CAPture kit (Cytiva) in HBS-TP running buffer at 20 °C. Binding studies and steady-state data analysis were performed as described for CrkII^NSH3 with the inclusion of an additional surface regeneration step (60 s injection of 1 M NaCl) between cycles. For Grb2^FL, Grb2^SH2, CrkII^SH2, CrkII^FL monomer and CrkII^FL dimer, to reduce nonspecific interactions the HBS-TP running buffer was supplemented with additional NaCl to a final concentration of 500 mM.
Binding studies for 14-3-3ɣ were undertaken in the same way in multi cycle mode (8 point, 3-fold serial dilution series, 0.46–1000 nM, 60 s contact time, 300 s dissociation).

CrkII^FL dimer = molecular target: T8, CrkII^FL dimer (Homo sapiens, UniProt P46108); assay: SPR, CrkII FL dimer binding to immobilised PEAK proteins; details: interactor as analyte over biotinylated PEAK protein (biotin CAPture); Biacore 8K+, HBS-TP with 500 mM NaCl, 20 °C; steady-state fit; mean ± SD (N = 2)
T8 construct: full length CrkII (CrkII^FL; UniProt P46108-1, residues 1–330); 8-His tag with TEV protease cleavage site (N); made in house; host or cells: E. coli C41 (DE3)
T8 sequence (P46108 whole entry, the tested form may be a part): as above
Method: as §2, §4

Grb2^FL = details: isothermal titration calorimetry, shown previously; read-out: ITC KD, Grb2^FL; cited from earlier work

Row | Molecule | Kd (14-3-3η) [µM] | Kd (14-3-3ε) [µM] | Kd (14-3-3γ) [µM] | Kd (14-3-3σ (Homo sapiens)) [µM] | Kd (CrkII^NSH3) [µM] | Kd (CrkII^FL dimer) [µM] | also measured
1 | CC[C@H](C)[C@H](NC(=O)[C@H](CCSC)NC(=O)[C@H](CCCCN)NC(=O)[C@H](CCCCN)NC(=O)[C@@H]1CCCN1C(=O)[C@H](CC(C)C)NC(=O)[C@@H]1CCCN1C(=O)[C@@H]1CCCN1C(=O)[C@@H]1CCCN1C(C)=O)C(=O)N[C@H](C(=O)N[C@@H](CCCNC(=N)N)C(=O)N[C@@H](C)C(=O)N[C@@H](CC(N)=O)C(=O)N[C@H](C(=O)N[C@@H](CCC(=O)O)C(=O)N1CCC[C@H]1C(=O)N[C@H](C(=O)N[C@@H](CO)C(=O)N[C@@H](CCCCN)C(=O)N[C@@H](CC(=O)O)C(N)=O)[C@@H](C)CC)[C@@H](C)O)[C@@H](C)CC (single isomer, unassigned) [PEAK1^tandem] | > 100 | > 100 | > 100 | > 100 | – | – | –
2 | PEAK3-FL E.coli (+ Src phosphorylation): E. coli PEAK3 (1–473) phosphorylated with recombinant Src kinase | – | – | – | – | 13.1 | 2.11 | SPR KD, CrkII-SH2 (CrkII^SH2): No binding; Kd (CrkII^FL monomer): 2.6 µM; SPR KD, 14-3-3ɣ (14-3-3ɣ): No binding
3 | CC[C@H](C)[C@H](NC(=O)[C@H](CCCCN)NC(=O)[C@H](CCCCN)NC(=O)[C@H](CCC(N)=O)NC(=O)[C@@H]1CCCN1C(=O)[C@H](CC(C)C)NC(=O)[C@@H]1CCCN1C(=O)[C@@H]1CCCN1C(=O)[C@@H]1CCCN1C(C)=O)C(=O)N[C@H](C(=O)N[C@@H](CO)C(=O)N[C@@H](CCCNC(=N)N)C(=O)N[C@@H](C)C(=O)N[C@@H](C)C(=O)N[C@@H](CO)C(=O)N[C@@H](CO)C(=O)N1CCC[C@H]1C(=O)N[C@@H](CC(=O)O)C(=O)NCC(=O)N[C@@H](Cc1ccccc1)C(N)=O)C(C)C (single isomer, unassigned) [PEAK2^tandem] | > 100 | > 100 | > 100 | > 100 | – | – | –
4 | PEAK3-FL (+ Src phosphorylation): insect cell PEAK3 (1–473) phosphorylated with recombinant Src kinase | – | – | – | – | 6.84 | 2.18 | Kd (14-3-3ɣ): < 1 µM
5 | CC(=O)N[C@H](C(=O)N[C@@H](Cc1ccc(OP(=O)(O)O)cc1)C(=O)N[C@@H](CO)C(=O)N[C@@H](CC(N)=O)C(=O)N[C@@H](CC(C)C)C(=O)NCC(=O)N[C@@H](CCC(N)=O)C(N)=O)[C@@H](C)O [SH2-pY peptide] | – | – | – | – | – | – | Kd (Grb2^FL): 2.6 µM
